Converted amounts (≈) assume the structure as drawn. Where a name gives a salt, the structure may show the parent alone.
Assays:
[1] = system: Staphylococcus aureus (ATCC29213); assay: In-vitro anti-bacterial activity, microtitre plate assay, IC90 determination (non-mycobacterial strains); assay type: cell-based; conditions: 90% inhibitory concentration for bacterial growth, resazurin fluorescence; for IC90 STA B29213: 24 hours; for IC90: Staphylococcus aureus, ATCC29213, 24 h, read-out: IC90 STA B29213
How it was run: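 Inoculum of about 100 TCID50 (10–60 CFU/well) in Mueller-Hinton broth, serial five-fold compound dilutions, 24 h at 37 °C in air. Growth read by resazurin fluorescence (ex 530/em 590 nm); IC90 in μg/ml as 90% growth inhibition.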

[2] = system: Mycobacterium smegmatis (ATCC607); assay: In-vitro anti-bacterial activity against strain M. Smegmatis ATCC607; assay type: cell-based; conditions: 90% inhibitory concentration for bacterial growth, Alamar Blue fluorescence; for IC90 MSM 607: 48 hours; for IC90: Mycolicibacterium smegmatis, ATCC607, 48 h, read-out: IC90 MSM 607
How it was run: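 Serial five-fold compound dilutions in BSA-supplemented wells, inoculated with ~250 CFU/well in Mueller-Hinton broth, incubated 48 h at 37 °C, 5% CO2. Growth read by Alamar Blue fluorescence (ex 530/em 590 nm); IC90 in μg/ml.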

| SMILES | IC90 STA B29213 [1] | IC90 MSM 607 [2] | melting point | IC90 [1] | IC90 [2] |
| --- | --- | --- | --- | --- | --- |
| COc1nc2ccc(Cl)cc2cc1C(c1ccc(Cl)cc1)C1(O)CCNC(c2ccc(F)cc2C)C1 (single isomer, unassigned) [Compound 2] | 13.20 µg/mL (≈ 25.1 µM) | 13.20 µg/mL (≈ 25.1 µM) | 126 °C |  |  |
| COc1nc2ccc(Cl)cc2cc1C(c1ccc(Cl)cc1)C1(O)CCNC(c2ccc(F)cc2C)C1 (single isomer, unassigned) [Compound 3] | 0.83 µg/mL (≈ 1.58 µM) | 0.83 µg/mL (≈ 1.58 µM) | 146 °C |  |  |
| COc1nc2ccc(Br)cc2cc1C(n1cccn1)[C@@]1(O)CCN[C@H](Cc2ccccc2)C1 (stereo in doubt) (as salt: fumarate) [Compound 67] |  |  | 245 °C |  |  |
| CS(=O)(=O)c1ccc2[nH]c(=O)c(C(c3ccc(Cl)cc3)C3(O)CCN[C@@H](Cc4ccc(F)c(F)c4)C3)cc2c1 (stereo in doubt) (as salt: hydrochloride) [Compound 205] |  |  | > 250 °C |  |  |
| CS(=O)(=O)c1ccc2[nH]c(=O)c(C(c3ccc(Cl)cc3)C3(O)CCN[C@@H](Cc4ccc(F)c(F)c4)C3)cc2c1 (stereo in doubt) (as salt: hydrochloride) [Compound 206] |  |  | 245 °C |  |  |
| COc1nc2ccc(SC)cc2cc1[C@@H](c1ccc(Cl)cc1)C1(O)CCNCC1(C)C (stereo in doubt) [Compound 62] |  |  | 212 °C | 5.75 µg/mL (≈ 12.6 µM) | 4.57 µg/mL (≈ 10 µM) |
| COc1nc2ccc(Cl)cc2cc1C(c1ccc(Cl)cc1)C1(O)CCN(C(C)c2ccccc2)C(CO)C1 (stereo not drawn) [Compound 9] |  |  | 182 °C | 4.92 µg/mL (≈ 8.92 µM) | 3.48 µg/mL (≈ 6.31 µM) |
| COc1nc2ccc(Br)cc2cc1C(c1ccc(Cl)cc1)C1(O)CCNC(C)C1 (stereo not drawn) [Compound 11] |  |  | 143 °C | 3 µg/mL (≈ 6.3 µM) | 3 µg/mL (≈ 6.3 µM) |
| COc1nc2ccc(Cl)cc2cc1C(c1ccc(Cl)cc1)C1(O)CCNC(CO)C1 (stereo not drawn) [Compound 12] |  |  | 135 °C | 7.09 µg/mL (≈ 15.8 µM) | 2.82 µg/mL (≈ 6.3 µM) |
| COc1nc2ccc(F)cc2cc1C(c1ccc(Cl)cc1)C1(O)CCN(C(C)c2ccccc2)C(CO)C1 (stereo not drawn) [Compound 13] |  |  | 162 °C | 8.48 µg/mL (≈ 15.8 µM) | 4.77 µg/mL (≈ 8.91 µM) |
| O=c1[nH]c2ccc(Cl)cc2cc1C(c1ccc(Cl)cc1)C1(O)CCNC(CO)C1 (stereo not drawn) [Compound 20] |  |  | 232 °C | > 10.9 µg/mL |  |
| COc1nc2ccc(F)cc2cc1C(c1ccccc1)C1(O)CCNC(CO)C1 (stereo not drawn) [Compound 29] |  |  | 135 °C | > 9.96 µg/mL |  |
| COc1nc2ccc(Br)cc2cc1C(c1ccc(Cl)cc1)C1(O)CCNC(Cc2ccccc2)C1 (stereo not drawn) [Compound 31] |  | 1.90 µg/mL (≈ 3.44 µM) | 183 °C | 3.48 µg/mL (≈ 6.31 µM) |  |
| COc1nc2ccc(Br)cc2cc1C(c1ccc(Cl)cc1)C1(O)CCNC(Cc2ccccc2)C1 (stereo not drawn) [Compound 33] | 3.48 µg/mL (≈ 6.31 µM) | >3.48 µg/mL | 177 °C |  |  |
| COc1nc2ccc(Br)cc2cc1C(c1cccc(Cl)c1)C1(O)CCNC(Cc2ccccc2)C1 (stereo not drawn) [Compound 34] | 3.48 µg/mL (≈ 6.31 µM) | 2.20 µg/mL (≈ 3.99 µM) | 152 °C |  |  |
| COc1nc2ccc(-c3cccnc3)cc2cc1C(c1cccc(Cl)c1)C1(O)CCNC(Cc2ccccc2)C1 (stereo not drawn) [Compound 36] |  |  | 120 °C | 3.47 µg/mL (≈ 6.31 µM) | 2.19 µg/mL (≈ 3.98 µM) |
| COc1nc2ccc(Cl)cc2cc1C(c1ccc(Cl)cc1)C1(O)CCNC(Cc2ccccc2)C1 (stereo not drawn) [Compound 37] | 1.14 µg/mL (≈ 2.25 µM) | 0.90 µg/mL (≈ 1.77 µM) | 107 °C |  |  |
| COc1nc2ccc(S(C)(=O)=O)cc2cc1C(c1cccc(Cl)c1)C1(O)CCNC(c2ccc(F)cc2C)C1 (stereo not drawn) [Compound 44] | 7.16 µg/mL (≈ 12.6 µM) | 3.59 µg/mL (≈ 6.31 µM) | 148 °C |  |  |
| COc1nc2ccc(S(C)(=O)=O)cc2cc1C(c1cccc(Cl)c1)C1(O)CCNC(c2ccc(F)cc2C)C1 (stereo not drawn) [Compound 45] | 1.80 µg/mL (≈ 3.16 µM) | 1.14 µg/mL (≈ 2 µM) | 160 °C |  |  |
| COc1nc2ccc(S(C)(=O)=O)cc2cc1C(c1cccc(Cl)c1)C1(O)CCNC(c2ccc(F)cc2C)C1 (stereo not drawn) [Compound 46] | 3.59 µg/mL (≈ 6.31 µM) | 1.80 µg/mL (≈ 3.16 µM) | 145 °C |  |  |
| COc1nc2ccc(S(C)(=O)=O)cc2cc1C(c1cccc(Cl)c1)C1(O)CCNC(c2ccc(F)cc2C)C1 (stereo not drawn) [Compound 47] | 14.30 µg/mL (≈ 25.1 µM) | 5.69 µg/mL (≈ 10 µM) | 174 °C |  |  |

| SMILES | IC90 STA B29213 [1] | IC90 MSM 607 [2] | melting point | IC90 [1] | IC90 [2] |
| --- | --- | --- | --- | --- | --- |
| COc1nc2ccc(F)cc2cc1C(c1ccc(Cl)cc1)C1(O)CCNC(Cc2ccccc2)C1 (stereo not drawn) [Compound 52] | 1.23 µg/mL (≈ 2.51 µM) | 0.62 µg/mL (≈ 1.26 µM) | 176 °C |  |  |
| COc1nc2ccc(F)cc2cc1C(c1ccc(Cl)cc1)C1(O)CCNC(Cc2ccccc2)C1 (stereo not drawn) [Compound 53] | 1.55 µg/mL (≈ 3.16 µM) | 2.46 µg/mL (≈ 5.01 µM) | 102 °C |  |  |
| CS(=O)(=O)c1ccc2[nH]c(=O)c(C(c3ccc(Cl)cc3)C3(O)CCNC(Cc4ccc(F)cc4)C3)cc2c1 (stereo not drawn) [Compound 56] | >13.94 µg/mL | >13.94 µg/mL | 140 °C |  |  |
| COc1nc2ccc(Br)cc2cc1C(c1ccc(Cl)cc1)C1(O)CCNC(Cc2ccccn2)C1 (stereo not drawn) [Compound 60] |  | 1.39 µg/mL (≈ 2.51 µM) | 161 °C | 2.77 µg/mL (≈ 5.01 µM) |  |
| COc1nc2ccc(Br)cc2cc1C(c1ccccc1)C1(O)CCNC(c2ccc(F)cc2C)C1 (stereo not drawn) [Compound 61] | 1.69 µg/mL (≈ 3.16 µM) | 0.85 µg/mL (≈ 1.59 µM) | 141 °C |  |  |
| CCCN(C)CC1CC(O)(C(c2ccc(Cl)cc2)c2cc3cc(Cl)ccc3nc2OC)CCN1 (stereo not drawn) [Compound 63] | 3.17 µg/mL (≈ 6.31 µM) | 1.59 µg/mL (≈ 3.16 µM) | 157 °C |  |  |
| COc1nc2ccc(Br)cc2cc1C(c1ccc(Cl)cc1)C1(O)CCNC(Cc2ccccc2)C1 (stereo not drawn) [Compound 70] | 4.38 µg/mL (≈ 7.94 µM) |  | 112 °C |  |  |
| COc1nc2ccc(Br)cc2cc1C(c1ccc(Cl)cc1)C1(O)CCNC(Cc2ccccc2)C1 (stereo not drawn) [Compound 71] | 4.38 µg/mL (≈ 7.94 µM) |  | 138 °C |  |  |
| COc1nc2ccc(Br)cc2cc1C(c1ccccc1)C1(O)CCNC(Cc2ccccc2)C1 (stereo not drawn) [Compound 74] |  |  | 157 °C |  |  |
| COc1nc2ccc(Br)cc2cc1C(c1ccc(Cl)cc1)C1(O)CCN(Cc2ccccc2)C(Cc2ccccc2)C1 (stereo not drawn) [Compound 75] |  |  | 192 °C |  |  |
| COc1nc2ccc(Br)cc2cc1C(c1ccc(Cl)cc1)C1(O)CCNC(Cc2ccccc2)C1 (stereo not drawn) [Compound 78] |  |  | 130 °C |  |  |
| O=c1[nH]c2ccc(Br)cc2cc1C(c1ccc(Cl)cc1)C1(O)CCNC(Cc2ccccc2)C1 (stereo not drawn) [Compound 81] |  |  | 233 °C | 8.52 µg/mL (≈ 15.8 µM) |  |
| COc1nc2ccc(Br)cc2cc1C(c1ccc(Cl)cc1)C1(O)CCNC(Cc2ccc(F)c(F)c2)C1 (stereo not drawn) [Compound 111] |  |  | 111 °C |  |  |
| COc1nc2ccc(Br)cc2cc1C(c1ccc(Cl)cc1)C1(O)CCNC(C)C1 (stereo not drawn) [Compound 123] |  |  | 210 °C |  |  |
| COc1nc2ccc(F)cc2cc1C(c1ccc(Cl)cc1)C1(O)CCN(C(C)c2ccccc2)C(CO)C1 (stereo not drawn) [Compound 436] |  |  | 135 °C | 13.4 µg/mL (≈ 25.1 µM) |  |
| COc1nc2ccc(Cl)cc2cc1C(c1ccc(Cl)cc1)C1(O)CCNCC1Cc1ccccn1 (stereo not drawn) [Compound 438] | 3.21 µg/mL (≈ 6.31 µM) |  | 188 °C |  |  |
| COc1nc2ccc(Cl)cc2cc1C(c1ccc(Cl)cc1)C1(O)CCNCC1Cc1ccccn1 (stereo not drawn) [Compound 439] | 12.77 µg/mL (≈ 25.1 µM) |  | 132 °C |  |  |
| COc1nc2ccc(Cl)cc2cc1C(c1ccc(Cl)cc1)C1(O)CCNCC1c1cccnc1 (stereo not drawn) [Compound 443] | 4.41 µg/mL (≈ 8.92 µM) |  | 156 °C |  |  |
| COc1nc2ccc(Cl)cc2cc1C(c1ccc(Cl)cc1)C1(O)CCNCC1c1cccnc1 (stereo not drawn) [Compound 444] | 12.42 µg/mL (≈ 25.1 µM) |  | 172 °C |  |  |
| COc1nc2ccc(Cl)cc2cc1C(c1ccc(Cl)cc1)C1(O)CCNCC1c1cccnc1 (stereo not drawn) [Compound 445] | 3.50 µg/mL (≈ 7.08 µM) |  | 154 °C |  |  |

Reference: US9617244B2, “Antibacterial quinoline derivatives” (JANSSEN PHARMACEUTICA NV, priority 2012, dated 2017)
